Test results taken from ChEMBL document CHEMBL4052696, “Varic acid analogues from fungus as PTP1B inhibitors: Biological evaluation and structure-activity relationships” (Bioorg Med Chem Lett, 2017).
Calls of active or inactive are those of the source.

How the values were obtained:
[1] = system: Rattus norvegicus; assay: Increase in insulin-induced glucose lowering effect in type 2 diabetic Wistar rat at 10 mg/kg, ip dosed 30 mins before insulin injection and measured 30 mins post insulin injection by glucose-oxidase assay; type: functional, organism-based
[2] = target: T1, Tyrosine-protein phosphatase non-receptor type 1 (Homo sapiens) (UniProt P18031); assay: Reversible inhibition of PTP1B (unknown origin) at 0.1 to 0.4 uM using p-nitrophenyl phosphate substrate incubated for 30 mins by Lineweaver-Burk double reciprocal plot
T1 sequence (whole entry): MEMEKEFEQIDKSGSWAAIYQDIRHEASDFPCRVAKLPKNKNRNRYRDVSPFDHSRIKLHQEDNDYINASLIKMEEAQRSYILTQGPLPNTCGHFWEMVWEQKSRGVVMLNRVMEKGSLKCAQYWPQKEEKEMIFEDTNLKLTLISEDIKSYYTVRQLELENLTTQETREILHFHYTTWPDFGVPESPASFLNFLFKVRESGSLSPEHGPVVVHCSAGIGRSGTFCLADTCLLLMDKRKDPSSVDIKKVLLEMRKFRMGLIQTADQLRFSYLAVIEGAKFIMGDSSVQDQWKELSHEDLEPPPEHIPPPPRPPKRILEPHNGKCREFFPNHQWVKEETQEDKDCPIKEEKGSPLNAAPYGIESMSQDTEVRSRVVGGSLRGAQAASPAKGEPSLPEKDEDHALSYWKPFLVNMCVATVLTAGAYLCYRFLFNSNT

[3] = system: Rattus norvegicus; assay: Increase in insulin-induced glucose lowering effect in normal Wistar rat at 10 mg/kg, ip dosed 30 mins before insulin injection and measured 30 mins post insulin injection by glucose-oxidase assay; type: functional, organism-based

CCCc1cc(OC(=O)c2c(O)cc(OC(=O)c3c(O)cc(O)cc3CCC)cc2CCC)cc(O)c1C(=O)O
active: Activity [1] | inhibition [2] | Activity [3]
